Measured values from the supplement of paper PMC4862054.

Tests used:
Test in all cases: normalised viability (% of control), CellTiter-Blue; higher = more viable cells (about 100 = DMSO control)
Settings in all cases: incubation time: 72 h
DU-4475 [1] = tested on: DU-4475
Outline: (§1)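 Breast cancer cell lines in 20 µl suspension were seeded onto 384-well plates pre-loaded with compound dissolved in 5 µl medium, then incubated 72 h. CellTiter-Blue reagent (2.5 µl) was added for 2 h at 37 °C and fluorescence read at 560/590 nm. Each plate was normalised to vehicle (100) and a positive kill control (0), with Z'-factor quality control. The value is normalised viability at one listed concentration of the series.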

BT-474 [2] = tested on: BT-474
Outline: as §1

MFM-223 [3] = tested on: MFM-223
Outline: as §1

CAL-51 [4] = tested on: CAL-51
Outline: as §1

HDQ-P1 [5] = tested on: HDQ-P1
Outline: as §1

HCC1937 [6] = tested on: HCC1937
Outline: as §1

MDA-MB-453 [7] = tested on: MDA-MB-453
Outline: as §1

MDA-MB-468 [8] = tested on: MDA-MB-468
Outline: as §1

Hs578T [9] = tested on: Hs578T
Outline: as §1

SK-BR-3 [10] = tested on: SK-BR-3
Outline: as §1

CAL-120 [11] = tested on: CAL-120
Outline: as §1

CAL-148 [12] = tested on: CAL-148
Outline: as §1

DU-4475 [13] = tested on: DU-4475; remark: listed apart in the source
Protocol: (§2)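 DSRT, CellTiter-Blue viability, 72 h incubation. Signal is normalised to DMSO and benzethonium chloride controls. Value is the normalised response at dose 3.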

HCC1143 = tested on: HCC1143
Protocol: as §2

BT-474 [14] = tested on: BT-474; remark: listed apart in the source
Protocol: as §2

BT-549 = tested on: BT-549
Protocol: as §2

MDA-MB-231 = tested on: MDA-MB-231
Protocol: as §2

HCC1599 = tested on: HCC1599
Protocol: as §2

MFM-223 [15] = tested on: MFM-223; remark: listed apart in the source
Protocol: as §2

CAL-51 [16] = tested on: CAL-51; remark: listed apart in the source
Protocol: as §2

MDA-MB-436 = tested on: MDA-MB-436
Protocol: as §2

HDQ-P1 [17] = tested on: HDQ-P1; remark: listed apart in the source
Protocol: as §2

HCC1937 [18] = tested on: HCC1937; remark: listed apart in the source
Protocol: as §2

MDA-MB-453 [19] = tested on: MDA-MB-453; remark: listed apart in the source
Protocol: as §2

MDA-MB-468 [20] = tested on: MDA-MB-468; remark: listed apart in the source
Protocol: as §2

Hs578T [21] = tested on: Hs578T; remark: listed apart in the source
Protocol: as §2

SK-BR-3 [22] = tested on: SK-BR-3; remark: listed apart in the source
Protocol: as §2

CAL-85-1 = tested on: CAL-85-1
Protocol: as §2

CAL-120 [23] = tested on: CAL-120; remark: listed apart in the source
Protocol: as §2

CAL-148 [24] = tested on: CAL-148; remark: listed apart in the source
Protocol: as §2

NC(=O)Nc1cc(-c2cccc(F)c2)sc1C(=O)N[C@H]1CCCNC1 [AZD 7762]
Settings | normalised viability [%]
BT-474 [2], 1 nM | 119
BT-474 [2], 100 nM | 113
BT-474 [2], 1000 nM | 106
BT-474 [14], 10 nM | 124
BT-549, 10 nM | 120
CAL-51 [4], 0.3 nM | 101
CAL-51 [4], 3 nM | 93.7
CAL-51 [4], 10 nM | 102
CAL-51 [16], 1 nM | 100
CAL-85-1, 1 nM | 99.8
CAL-120 [11], 1 nM | 118
CAL-120 [11], 100 nM | 101
CAL-120 [11], 1000 nM | 26.5
CAL-120 [23], 10 nM | 114
CAL-148 [12], 0.3 nM | 110
CAL-148 [12], 3 nM | 106
CAL-148 [12], 10 nM | 111
CAL-148 [24], 1 nM | 105
DU-4475 [1], 0.3 nM | 99.3
DU-4475 [1], 3 nM | 109
DU-4475 [1], 10 nM | 100
DU-4475 [13], 1 nM | 113
HCC1143, 10 nM | 105
HCC1599, 10 nM | 101
HCC1937 [6], 1 nM | 104
HCC1937 [6], 100 nM | 108
HCC1937 [6], 1000 nM | 27.9
HCC1937 [18], 10 nM | 105
HDQ-P1 [5], 0.3 nM | 108
HDQ-P1 [5], 3 nM | 114
HDQ-P1 [5], 10 nM | 115
HDQ-P1 [17], 1 nM | 115
Hs578T [9], 1 nM | 106
Hs578T [9], 100 nM | 90
Hs578T [9], 1000 nM | 27.3
Hs578T [21], 10 nM | 104
MDA-MB-231, 10 nM | 114
MDA-MB-436, 10 nM | 96.1
MDA-MB-453 [7], 0.3 nM | 113
MDA-MB-453 [7], 3 nM | 93.2
MDA-MB-453 [7], 10 nM | 108
MDA-MB-453 [19], 1 nM | 104
MDA-MB-468 [8], 1 nM | 107
MDA-MB-468 [8], 100 nM | 103
MDA-MB-468 [8], 1000 nM | 22.2
MDA-MB-468 [20], 10 nM | 107
MFM-223 [3], 1 nM | 101
MFM-223 [3], 100 nM | 104
MFM-223 [3], 1000 nM | 51.7
MFM-223 [15], 10 nM | 96.2
SK-BR-3 [10], 1 nM | 101
SK-BR-3 [10], 100 nM | 93.2
SK-BR-3 [10], 1000 nM | 11.5
SK-BR-3 [22], 10 nM | 97.6

C=C(c1ccc(C(=O)O)cc1)c1cc2c(cc1C)C(C)(C)CCC2(C)C [Bexarotene]
Settings | normalised viability [%]
BT-474 [2], 10 nM | 103
BT-474 [2], 1000 nM | 95.7
BT-474 [2], 10000 nM | 97.7
BT-474 [14], 100 nM | 102
BT-549, 100 nM | 73.2
CAL-51 [4], 3 nM | 82
CAL-51 [4], 30 nM | 88.7
CAL-51 [4], 100 nM | 88.5
CAL-51 [16], 10 nM | 84.7
CAL-85-1, 10 nM | 97
CAL-120 [11], 10 nM | 101
CAL-120 [11], 1000 nM | 108
CAL-120 [11], 10000 nM | 106
CAL-120 [23], 100 nM | 104
CAL-148 [12], 3 nM | 110
CAL-148 [12], 30 nM | 92.7
CAL-148 [12], 100 nM | 99.8
CAL-148 [24], 10 nM | 101
DU-4475 [1], 3 nM | 98.7
DU-4475 [1], 30 nM | 102
DU-4475 [1], 100 nM | 103
DU-4475 [13], 10 nM | 110
HCC1143, 100 nM | 115
HCC1599, 100 nM | 88
HCC1937 [6], 10 nM | 82.3
HCC1937 [6], 1000 nM | 82.2
HCC1937 [6], 10000 nM | 82.1
HCC1937 [18], 100 nM | 93.5
HDQ-P1 [5], 3 nM | 89.3
HDQ-P1 [5], 30 nM | 84.9
HDQ-P1 [5], 100 nM | 102
HDQ-P1 [17], 10 nM | 86.4
Hs578T [9], 10 nM | 99
Hs578T [9], 1000 nM | 105
Hs578T [9], 10000 nM | 75.3
Hs578T [21], 100 nM | 70.7
MDA-MB-231, 100 nM | 80.5
MDA-MB-436, 100 nM | 77.2
MDA-MB-453 [7], 3 nM | 91
MDA-MB-453 [7], 30 nM | 91.3
MDA-MB-453 [7], 100 nM | 74.5
MDA-MB-453 [19], 10 nM | 92
MDA-MB-468 [8], 10 nM | 108
MDA-MB-468 [8], 1000 nM | 100
MDA-MB-468 [8], 10000 nM | 110
MDA-MB-468 [20], 100 nM | 108
MFM-223 [3], 10 nM | 101
MFM-223 [3], 1000 nM | 103
MFM-223 [3], 10000 nM | 96.5
MFM-223 [15], 100 nM | 87.4
SK-BR-3 [10], 10 nM | 100
SK-BR-3 [10], 1000 nM | 89.8
SK-BR-3 [10], 10000 nM | 83.1
SK-BR-3 [22], 100 nM | 82.6

C[C@]12CC[C@@H]3c4ccc(O)cc4C[C@@H](CCCCCCCCC[S+]([O-])CCCC(F)(F)C(F)(F)F)[C@H]3[C@@H]1CC[C@@H]2O (some centres not stated) [Fulvestrant]
Settings | normalised viability [%]
BT-474 [2], 10 nM | 94.7
BT-474 [2], 1000 nM | 88.4
BT-474 [2], 10000 nM | 107
BT-474 [14], 100 nM | 89.2
BT-549, 100 nM | 94.8
CAL-51 [4], 3 nM | 116
CAL-51 [4], 30 nM | 107
CAL-51 [4], 100 nM | 109
CAL-51 [16], 10 nM | 112
CAL-85-1, 10 nM | 95.8
CAL-120 [11], 10 nM | 79.2
CAL-120 [11], 1000 nM | 90.7
CAL-120 [11], 10000 nM | 87.6
CAL-120 [23], 100 nM | 78.5
CAL-148 [12], 3 nM | 89
CAL-148 [12], 30 nM | 87.5
CAL-148 [12], 100 nM | 87.3
CAL-148 [24], 10 nM | 86.5
DU-4475 [1], 3 nM | 91.6
DU-4475 [1], 30 nM | 78
DU-4475 [1], 100 nM | 91.5
DU-4475 [13], 10 nM | 105
HCC1143, 100 nM | 77.8
HCC1599, 100 nM | 113
HCC1937 [6], 10 nM | 88.3
HCC1937 [6], 1000 nM | 85.5
HCC1937 [6], 10000 nM | 88.3
HCC1937 [18], 100 nM | 91.9
HDQ-P1 [5], 3 nM | 83.7
HDQ-P1 [5], 30 nM | 92.2
HDQ-P1 [5], 100 nM | 94
HDQ-P1 [17], 10 nM | 93.3
Hs578T [9], 10 nM | 103
Hs578T [9], 1000 nM | 91.7
Hs578T [9], 10000 nM | 86.2
Hs578T [21], 100 nM | 85.5
MDA-MB-231, 100 nM | 79.9
MDA-MB-436, 100 nM | 103
MDA-MB-453 [7], 3 nM | 108
MDA-MB-453 [7], 30 nM | 81.1
MDA-MB-453 [7], 100 nM | 93.7
MDA-MB-453 [19], 10 nM | 81.3
MDA-MB-468 [8], 10 nM | 97.5
MDA-MB-468 [8], 1000 nM | 104
MDA-MB-468 [8], 10000 nM | 83.6
MDA-MB-468 [20], 100 nM | 87.2
MFM-223 [3], 10 nM | 67.2
MFM-223 [3], 1000 nM | 77.6
MFM-223 [3], 10000 nM | 45.2
MFM-223 [15], 100 nM | 70.4
SK-BR-3 [10], 10 nM | 76.9
SK-BR-3 [10], 1000 nM | 109
SK-BR-3 [10], 10000 nM | 84.5
SK-BR-3 [22], 100 nM | 94.3
